The values below come from ChEMBL document CHEMBL5647694, “Novel orally bioavailable EZH1/2 dual inhibitors with greater antitumor efficacy than an EZH2 selective inhibitor” (Cancer Sci, 2017).

Test [1] deals with Casein kinase I isoform gamma-1 (Homo sapiens) (UniProt Q9HCP0). The test is described as follows: Inhibition of N-terminal GST-fused full length human CK1gamma1 (1 to 422 residues) expressed in baculovirus expression system using CKtide as substrate at 1 uM in presence of ATP by Mobility shift assay.
Test [2] deals with Rho-associated protein kinase 1 (Homo sapiens) (UniProt Q13464). The test is described as follows: Inhibition of N-terminal GST-fused human ROCK1 catalytic domain (1 to 477 residues) expressed in baculovirus expression system using LIMKtide as substrate at 1 uM in presence of ATP by Mobility shift assay.
Sequence of Rho-associated protein kinase 1 (Homo sapiens) (Q13464 2-1354 limits assumed): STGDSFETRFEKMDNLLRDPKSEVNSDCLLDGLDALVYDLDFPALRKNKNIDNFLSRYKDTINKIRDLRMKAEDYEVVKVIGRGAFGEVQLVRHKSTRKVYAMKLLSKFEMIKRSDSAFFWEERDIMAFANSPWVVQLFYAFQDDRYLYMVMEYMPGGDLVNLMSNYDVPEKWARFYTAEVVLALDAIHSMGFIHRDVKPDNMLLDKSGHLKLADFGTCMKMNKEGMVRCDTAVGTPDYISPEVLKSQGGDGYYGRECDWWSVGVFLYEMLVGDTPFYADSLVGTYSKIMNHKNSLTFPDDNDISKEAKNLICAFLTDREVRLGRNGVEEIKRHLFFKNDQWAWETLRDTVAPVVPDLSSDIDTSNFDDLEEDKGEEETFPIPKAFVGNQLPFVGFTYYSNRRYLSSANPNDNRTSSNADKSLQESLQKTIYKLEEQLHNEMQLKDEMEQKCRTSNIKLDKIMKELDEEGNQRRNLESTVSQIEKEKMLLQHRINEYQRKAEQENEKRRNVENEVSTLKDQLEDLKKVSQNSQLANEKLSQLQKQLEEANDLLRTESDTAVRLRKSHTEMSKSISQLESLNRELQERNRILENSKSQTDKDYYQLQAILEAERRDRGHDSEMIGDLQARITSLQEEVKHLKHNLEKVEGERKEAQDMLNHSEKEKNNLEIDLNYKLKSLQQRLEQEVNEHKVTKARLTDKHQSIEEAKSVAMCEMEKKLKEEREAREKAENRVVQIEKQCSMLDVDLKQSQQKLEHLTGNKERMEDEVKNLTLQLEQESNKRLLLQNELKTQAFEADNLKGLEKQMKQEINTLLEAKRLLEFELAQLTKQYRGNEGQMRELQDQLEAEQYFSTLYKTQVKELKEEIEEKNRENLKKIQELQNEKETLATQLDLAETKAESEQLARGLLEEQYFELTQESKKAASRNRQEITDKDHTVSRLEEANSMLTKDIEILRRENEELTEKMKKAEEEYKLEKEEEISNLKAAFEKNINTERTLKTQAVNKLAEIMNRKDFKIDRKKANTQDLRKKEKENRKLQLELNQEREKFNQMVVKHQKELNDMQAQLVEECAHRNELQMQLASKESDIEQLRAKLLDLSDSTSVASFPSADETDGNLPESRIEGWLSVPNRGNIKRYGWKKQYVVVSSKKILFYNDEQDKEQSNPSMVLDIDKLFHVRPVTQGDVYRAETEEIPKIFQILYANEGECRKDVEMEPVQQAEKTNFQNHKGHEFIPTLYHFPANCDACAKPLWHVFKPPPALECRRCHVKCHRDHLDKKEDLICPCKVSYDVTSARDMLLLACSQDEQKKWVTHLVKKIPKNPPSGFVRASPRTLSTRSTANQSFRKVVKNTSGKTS
Test [3] deals with Activated CDC42 kinase 1 (Homo sapiens) (UniProt Q07912). Description: Inhibition of N-terminal GST-fused wild type human ACK catalytic domain (110 to 476 residues) expressed in baculovirus-infected Sf21 cells using WASP peptide as substrate at 1 uM in presence of ATP by Mobility shift assay.
Sequence of Activated CDC42 kinase 1 (Homo sapiens) (Q07912 whole entry, looked up, the tested form may be a part): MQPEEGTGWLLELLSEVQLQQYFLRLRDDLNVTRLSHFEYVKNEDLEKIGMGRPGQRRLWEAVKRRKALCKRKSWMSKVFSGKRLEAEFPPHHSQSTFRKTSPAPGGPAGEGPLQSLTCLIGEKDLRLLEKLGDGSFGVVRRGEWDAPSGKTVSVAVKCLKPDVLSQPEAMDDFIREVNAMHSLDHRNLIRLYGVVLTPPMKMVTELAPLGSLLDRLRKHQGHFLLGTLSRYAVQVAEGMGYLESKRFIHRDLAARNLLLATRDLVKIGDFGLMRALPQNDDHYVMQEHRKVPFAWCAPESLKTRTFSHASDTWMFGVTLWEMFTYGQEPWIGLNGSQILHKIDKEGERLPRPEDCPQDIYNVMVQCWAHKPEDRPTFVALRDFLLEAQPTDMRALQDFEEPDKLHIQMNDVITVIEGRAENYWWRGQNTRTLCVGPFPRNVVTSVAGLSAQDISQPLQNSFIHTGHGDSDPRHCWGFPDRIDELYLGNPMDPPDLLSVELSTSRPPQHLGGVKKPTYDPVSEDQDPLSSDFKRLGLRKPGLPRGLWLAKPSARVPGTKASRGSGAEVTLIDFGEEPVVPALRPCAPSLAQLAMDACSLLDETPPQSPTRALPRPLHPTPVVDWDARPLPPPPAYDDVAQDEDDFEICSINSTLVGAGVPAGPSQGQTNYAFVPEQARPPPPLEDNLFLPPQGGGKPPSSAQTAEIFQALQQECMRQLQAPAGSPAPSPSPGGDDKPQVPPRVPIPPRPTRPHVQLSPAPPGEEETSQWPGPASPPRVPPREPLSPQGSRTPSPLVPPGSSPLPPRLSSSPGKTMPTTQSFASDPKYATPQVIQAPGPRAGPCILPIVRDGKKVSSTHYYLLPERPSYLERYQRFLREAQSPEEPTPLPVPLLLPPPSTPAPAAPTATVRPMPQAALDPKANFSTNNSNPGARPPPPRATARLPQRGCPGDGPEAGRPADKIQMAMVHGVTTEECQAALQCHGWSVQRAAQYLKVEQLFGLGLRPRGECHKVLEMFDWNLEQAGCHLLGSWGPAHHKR
The target of test [4] is [Pyruvate dehydrogenase (acetyl-transferring)] kinase isozyme 4, mitochondrial (Homo sapiens) (UniProt Q16654). Description: Inhibition of N-terminal GST-fused full length human PDHK4 (1 to 411 residues) expressed in Escherichia coli expression system using PDHKtide as substrate at 1 uM in presence of ATP by Mobility shift assay.
Sequence of [Pyruvate dehydrogenase (acetyl-transferring)] kinase isozyme 4, mitochondrial (Homo sapiens) (Q16654 whole entry, looked up, the tested form may be a part): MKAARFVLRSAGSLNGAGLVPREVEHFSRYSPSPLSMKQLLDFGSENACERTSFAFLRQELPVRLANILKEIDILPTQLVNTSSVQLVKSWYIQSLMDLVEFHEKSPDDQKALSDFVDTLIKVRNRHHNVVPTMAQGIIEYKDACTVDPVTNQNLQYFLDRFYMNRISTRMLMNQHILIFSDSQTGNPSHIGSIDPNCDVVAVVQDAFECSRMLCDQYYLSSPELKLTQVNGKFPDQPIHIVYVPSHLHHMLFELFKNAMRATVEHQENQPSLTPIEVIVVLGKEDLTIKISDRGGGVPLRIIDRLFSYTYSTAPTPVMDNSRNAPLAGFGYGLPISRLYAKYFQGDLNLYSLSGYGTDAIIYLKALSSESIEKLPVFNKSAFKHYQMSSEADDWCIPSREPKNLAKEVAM
Test [5] deals with SRSF protein kinase 3 (Homo sapiens) (UniProt Q9UPE1). Description: Inhibition of N-terminal GST-fused full length human MSSK1 (1 to 567 residues) expressed in baculovirus expression system using DYRKtide-F as substrate at 1 uM in presence of ATP by Mobility shift assay.
Sequence of SRSF protein kinase 3 (Homo sapiens) (Q9UPE1 whole entry, the tested form may be a part): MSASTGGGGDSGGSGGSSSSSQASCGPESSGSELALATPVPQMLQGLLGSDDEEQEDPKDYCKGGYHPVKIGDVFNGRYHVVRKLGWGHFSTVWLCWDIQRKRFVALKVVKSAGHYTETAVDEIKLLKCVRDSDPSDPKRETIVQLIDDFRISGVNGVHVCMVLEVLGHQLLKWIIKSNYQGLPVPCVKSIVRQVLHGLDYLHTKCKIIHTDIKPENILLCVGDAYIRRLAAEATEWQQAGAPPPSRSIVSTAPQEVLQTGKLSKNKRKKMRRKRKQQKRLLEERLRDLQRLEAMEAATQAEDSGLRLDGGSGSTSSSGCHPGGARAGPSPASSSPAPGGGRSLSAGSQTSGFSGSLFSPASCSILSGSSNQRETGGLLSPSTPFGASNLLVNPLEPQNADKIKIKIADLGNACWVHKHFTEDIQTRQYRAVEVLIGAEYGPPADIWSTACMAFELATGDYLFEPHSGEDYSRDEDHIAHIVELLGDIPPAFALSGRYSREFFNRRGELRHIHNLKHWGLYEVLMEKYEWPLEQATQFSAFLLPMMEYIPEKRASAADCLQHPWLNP
Test [6] has as its target Serine/threonine-protein kinase PAK 5 (Homo sapiens) (UniProt Q9P286). Description: Inhibition of N-terminal GST-fused human PAK5 catalytic domain (425 to 719 residues) expressed in baculovirus expression system using DAPK1tide as substrate at 1 uM in presence of ATP by Mobility shift assay.
Test [7] deals with Tyrosine-protein kinase Fes/Fps (Homo sapiens) (UniProt P07332). Description: Inhibition of N-terminal GST-fused full length human FES (1 to 413, 416 to 822 residues) expressed in baculovirus-infected Sf21 cells using Srctide as substrate at 1 uM in presence of ATP by Mobility shift assay.
The target of test [8] is MAP kinase-interacting serine/threonine-protein kinase 2 (Homo sapiens) (UniProt Q9HBH9). Description: Inhibition of N-terminal GST-fused full length human MNK2 (1 to 465 residues) expressed in baculovirus expression system using RS peptide as substrate at 1 uM in presence of ATP by Mobility shift assay.
The target of test [9] is Glycogen synthase kinase-3 beta (Homo sapiens) (UniProt P49841). Description: Inhibition of N-terminal GST-fused full length human GSK3-beta (1 to 420 residues) expressed in baculovirus expression system using CREBtide-p as substrate at 1 uM in presence of ATP by Mobility shift assay.
Sequence of Glycogen synthase kinase-3 beta (Homo sapiens) (P49841 whole entry, looked up, the tested form may be a part): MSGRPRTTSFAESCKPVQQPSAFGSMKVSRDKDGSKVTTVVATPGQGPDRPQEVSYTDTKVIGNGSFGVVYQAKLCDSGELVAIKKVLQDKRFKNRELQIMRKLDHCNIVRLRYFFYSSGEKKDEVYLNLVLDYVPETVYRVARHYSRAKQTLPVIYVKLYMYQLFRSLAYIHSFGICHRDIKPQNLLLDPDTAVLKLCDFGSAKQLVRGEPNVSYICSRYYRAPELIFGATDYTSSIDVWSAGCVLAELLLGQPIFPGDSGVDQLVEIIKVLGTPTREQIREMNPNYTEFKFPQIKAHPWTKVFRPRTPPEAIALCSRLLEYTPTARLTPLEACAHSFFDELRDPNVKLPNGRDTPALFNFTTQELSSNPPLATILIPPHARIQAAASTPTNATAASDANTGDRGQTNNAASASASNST
The target in test [10] is Serine/threonine-protein kinase N1 (Homo sapiens) (UniProt Q16512). The test is described as follows: Inhibition of N-terminal GST-fused full length human PKN1 (1 to 942 residues) expressed in baculovirus expression system using S6K peptide as substrate at 1 uM in presence of ATP by IMAP.
Test [11] has as its target Tyrosine-protein kinase ITK/TSK (Homo sapiens) (UniProt Q08881). The test is described as follows: Inhibition of N-terminal GST-fused full length human ITK (2 to 620 residues) expressed in baculovirus-infected Sf21 cells using Srctide as substrate at 1 uM in presence of ATP by Mobility shift assay.
Test [12] deals with Tyrosine-protein kinase Fyn (Homo sapiens) (UniProt P06241). Description: Inhibition of human FYN at 1 uM by mobility shift assay relative to control.
Test [13] concerns the target Receptor tyrosine-protein kinase erbB-4 (Homo sapiens) (UniProt Q15303). Description: Inhibition of N-terminal GST-fused human HER4 cytoplasmic domain (676 to 1308 residues) expressed in baculovirus infected Sf21 cells using Srctide as substrate at 1 uM in presence of ATP by Mobility shift assay.
Test [14] deals with Focal adhesion kinase 1 (Homo sapiens) (UniProt Q05397). Description: Inhibition of N-terminal GST-fused truncated human FAK (376 to 1052 residues) expressed in baculovirus-infected Sf21 cells using Blk/Lyntide as substrate at 1 uM in presence of ATP by Mobility shift assay.
Test [15] has as its target Discoidin domain-containing receptor 2 (Homo sapiens) (UniProt Q16832). Description: Inhibition of N-terminal GST-fused human DDR2 cytoplasmic domain (422 to 855 residues) expressed in baculovirus-infected Sf21 cells using IRS1 as substrate at 1 uM in presence of ATP by Mobility shift assay.
The target in test [16] is CDK6/cyclin D3 (Homo sapiens) (UniProt P30281+Q00534). The test is described as follows: Inhibition of N-terminal GST-tagged full length human CDK6 (1 to 326 residues)/GST-tagged human CyclinD3 (1 to 292 residues) expressed in baculovirus-infected Sf21 cells using DYRKtide-F as substrate at 1 uM in presence of ATP by Mobility shift assay.
For test [17], the target named is Fibroblast growth factor receptor 1 (Homo sapiens) (UniProt P11362). The test is described as follows: Inhibition of N-terminal GST-fused human FGFR1 cytoplasmic domain (398 to 822 residues ) expressed in baculovirus-infected Sf21 cells using CSKtide as substrate at 1 uM in presence of ATP by Mobility shift assay.
Test [18] has as its target Serine/threonine-protein kinase SIK1 (Homo sapiens) (UniProt P57059). The test is described as follows: Inhibition of N-terminal GST-fused full length human SIK (1 to 783 residues) expressed in baculovirus expression system using AMARA peptide as substrate at 1 uM in presence of ATP by Mobility shift assay.
The target in test [19] is Protein kinase C beta type (Homo sapiens) (UniProt P05771). Description: Inhibition of N-terminal GST-fused human full length PKC-beta1 (1 to 671 residues ) expressed in baculovirus expression system using PKC peptide as substrate at 1 uM in presence of ATP by Mobility shift assay.
Test [20] deals with Tyrosine-protein kinase Blk (Homo sapiens) (UniProt P51451). Description: Inhibition of N-terminal GST-fused full length human BLK (1 to 505 residues) expressed in baculovirus-infected Sf21 cells using Srctide as substrate at 1 uM in presence of ATP by Mobility shift assay.
In test [21] the target is Protein kinase C eta type (Homo sapiens) (UniProt P24723). The test is described as follows: Inhibition of N-terminal GST-fused human full length PKC-eta (1 to 683 residues ) expressed in baculovirus expression system using PKC peptide as substrate at 1 uM in presence of ATP by Mobility shift assay.
The target in test [22] is Misshapen-like kinase 1 (Homo sapiens) (UniProt Q8N4C8). Description: Inhibition of N-terminal GST-fused human MINK catalytic domain (1 to 314 residues) expressed in baculovirus expression system using Modified Erktide as substrate at 1 uM in presence of ATP by Mobility shift assay.
Test [23] deals with Serine/threonine-protein kinase SIK2 (Homo sapiens) (UniProt Q9H0K1). Description: Inhibition of N-terminal GST-fused full length human QIK (1 to 926 residues) expressed in baculovirus expression system using AMARA peptide as substrate at 1 uM in presence of ATP by Mobility shift assay.

Molecules are shown by their SMILES.

Sequence of Receptor tyrosine-protein kinase erbB-4 (Homo sapiens) (Q15303 whole entry, the tested form may be a part): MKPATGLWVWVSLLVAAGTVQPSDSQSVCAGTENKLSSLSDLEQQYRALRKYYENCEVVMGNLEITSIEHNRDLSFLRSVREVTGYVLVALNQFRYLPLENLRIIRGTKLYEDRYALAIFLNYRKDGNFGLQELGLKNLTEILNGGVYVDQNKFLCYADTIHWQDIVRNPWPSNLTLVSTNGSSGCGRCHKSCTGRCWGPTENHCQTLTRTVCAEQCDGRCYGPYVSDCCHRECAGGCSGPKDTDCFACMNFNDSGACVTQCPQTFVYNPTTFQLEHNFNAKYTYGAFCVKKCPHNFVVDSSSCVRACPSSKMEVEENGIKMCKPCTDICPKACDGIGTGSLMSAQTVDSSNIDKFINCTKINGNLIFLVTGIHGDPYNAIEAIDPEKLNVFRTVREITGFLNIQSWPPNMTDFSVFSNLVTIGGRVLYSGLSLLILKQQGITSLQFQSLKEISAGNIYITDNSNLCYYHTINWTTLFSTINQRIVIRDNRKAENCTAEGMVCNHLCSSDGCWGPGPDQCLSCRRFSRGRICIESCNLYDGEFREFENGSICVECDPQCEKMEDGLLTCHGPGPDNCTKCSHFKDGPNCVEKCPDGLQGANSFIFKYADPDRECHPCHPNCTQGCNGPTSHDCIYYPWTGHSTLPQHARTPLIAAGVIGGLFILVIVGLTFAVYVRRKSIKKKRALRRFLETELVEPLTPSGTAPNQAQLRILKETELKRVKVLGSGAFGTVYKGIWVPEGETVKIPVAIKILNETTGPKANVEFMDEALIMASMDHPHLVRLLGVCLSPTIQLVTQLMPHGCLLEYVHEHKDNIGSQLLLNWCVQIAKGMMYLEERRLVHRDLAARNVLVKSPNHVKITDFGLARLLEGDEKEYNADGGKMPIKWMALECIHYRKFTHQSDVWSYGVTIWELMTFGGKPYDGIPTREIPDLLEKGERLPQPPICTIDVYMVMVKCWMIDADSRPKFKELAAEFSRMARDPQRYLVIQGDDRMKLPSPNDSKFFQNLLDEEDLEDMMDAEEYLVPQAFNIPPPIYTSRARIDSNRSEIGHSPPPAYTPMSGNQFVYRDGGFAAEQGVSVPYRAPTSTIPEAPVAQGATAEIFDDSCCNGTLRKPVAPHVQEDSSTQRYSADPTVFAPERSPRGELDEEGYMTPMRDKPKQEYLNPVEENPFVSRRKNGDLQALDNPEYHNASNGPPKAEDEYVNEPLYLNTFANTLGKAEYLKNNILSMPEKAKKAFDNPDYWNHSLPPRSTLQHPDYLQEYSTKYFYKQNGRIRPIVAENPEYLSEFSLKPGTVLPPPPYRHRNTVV

The inhibition is the change of the read-out against control, counted positive when it falls. For `Cc1cc(C)c(CNC(=O)c2cc(Br)c3c(c2C)O[C@@](C)([C@H]2CC[C@H](N(C)C)CC2)O3)c(=O)[nH]1`, the inhibition is 0.5% in test [1]; 3% in test [2]; 0.2% in test [3]; -4.1% in [4]; -6.3% in test [5]; -4.3% in [6]. For the same molecule, the inhibition in test [7] is -0.6%; in [8], 7.2%; in test [9], -3.3%; in test [10] it was 6.7%; in test [11] it was -5.6%; in test [12] it was 2.6%. Besides, the inhibition in [13] was 2.6%; in [14], -1.5%; in [15], -0.2%; in test [16], -8.9%; in test [17], -2.9%; in [18] it was -3.1%. In addition, the inhibition is 6.9% in [19]; -3.1% in test [20]; 10.8% in [21]; -2.6% in [22]; -0.5% in test [23].

For `Cc1cc(C)c(CNC(=O)c2cc(Cl)c3c(c2C)O[C@@](C)([C@H]2CC[C@H](N(C)C)CC2)O3)c(=O)[nH]1` [VALEMETOSTAT], the inhibition in test [1] is -1.8%; in [2] it was -2.5%; in test [3], -1.2%; in test [4] it was -4.3%; in test [5], -5.4%; in test [6], -3.9%. Further, the inhibition is -2.7% in test [7]; 8.7% in test [8]; -7.1% in test [9]; 8.3% in test [10]; -5.8% in test [11]; 5.1% in test [12]. Moreover, the inhibition in test [13] was -0.2%; in [14] it was -2.3%; in test [15], -2.8%; in [16] it was -4.9%; in test [17] it was -4.3%; in test [18], 6.2%. For the same molecule, the inhibition in [19] is 1.8%; in [20], -5%; in test [21] it was 19.8%; in [22], -4.6%; in test [23], -1.9%.
